Reference: ChEMBL document CHEMBL1124085, “Flavins as potential antimalarials. 1. 10-(Halophenyl)-3-methylflavins” (1988)
Where “and” joins values, the source holds several entries; their conditions need not be identical. Identical values can stand only once.

Columns and labels:
Type in all cases: functional
[1] = test system: Mus musculus; assay: Parenteral antimalarial activity against Plasmodium vinckei in mice (Mus musculus) measured as % cured and increase in MST (days) at 30 mg/kg dose
[2] = test system: Mus musculus; assay: Parenteral antimalarial activity against Plasmodium vinckei vinckei in mice (Mus musculus) measured as % cured and increase in MST (days) at 15 mg/kg dose
[3] = test system: Mus musculus; assay: Parenteral antimalarial activity against Plasmodium vinckei in mice (Mus musculus) measured as % cured and increase in MST (days) at 20 mg/kg dose
[4] = test system: Mus musculus; assay: Parenteral antimalarial activity against Plasmodium vinckei in mice (Mus musculus) measured as % cured and increase in MST (days) at 25 mg/kg dose
[5] = test system: Mus musculus; assay: Oral antimalarial activity against Plasmodium vinckei in mice (Mus musculus) measured as % cured and increase in MST (days) at 25 mg/kg dose
[6] = test system: Mus musculus; assay: Oral antimalarial activity against Plasmodium vinckei vinckei in mice (Mus musculus) measured as % cured and increase in MST (days) at 50 mg/kg dose
[7] = test system: Mus musculus; assay: Oral antimalarial activity against Plasmodium vinckei in mice (Mus musculus) measured as % cured and increase in MST (days) at 75 mg/kg dose
[8] = test system: Mus musculus; assay: Oral antimalarial activity against Plasmodium vinckei vinckei in mice (Mus musculus) measured as % cured and increase in MST (days) at 100 mg/kg dose
[9] = test system: Mus musculus; assay: Oral antimalarial activity against Plasmodium vinckei vinckei in mice (Mus musculus) measured as % cured and increase in MST (days) at 150 mg/kg dose
[10] = test system: Mus musculus; assay: Parenteral antimalarial activity against Plasmodium vinckei in mice (Mus musculus) measured as increase in mean survival time at 20 mg/kg dose
[11] = test system: Mus musculus; assay: Parenteral antimalarial activity against Plasmodium vinckei vinckei in mice (Mus musculus) measured as increase in mean survival time at 25 mg/kg dose
[12] = test system: Mus musculus; assay: Parenteral antimalarial activity against Plasmodium vinckei in mice (Mus musculus) measured as increase in mean survival time at 30 mg/kg dose
[13] = test system: Mus musculus; assay: Parenteral antimalarial activity against Plasmodium vinckei in mice (Mus musculus) measured as increase in mean survival time at 15 mg/kg dose
[14] = test system: Mus musculus; assay: Oral antimalarial activity against Plasmodium vinckei in mice (Mus musculus) measured as increase in mean survival time at 100 mg/kg dose
[15] = test system: Mus musculus; assay: Oral antimalarial activity against Plasmodium vinckei in mice (Mus musculus) measured as increase in mean survival time at 150 mg/kg dose
[16] = test system: Mus musculus; assay: Oral antimalarial activity against Plasmodium vinckei in mice (Mus musculus) measured as increase in mean survival time at 25 mg/kg dose
[17] = test system: Mus musculus; assay: Oral antimalarial activity against Plasmodium vinckei vinckei in mice (Mus musculus) measured as increase in mean survival time at 75 mg/kg dose
[18] = test system: Mus musculus; assay: Oral antimalarial activity against Plasmodium vinckei vinckei in mice (Mus musculus) measured as increase in mean survival time at 50 mg/kg dose
[19] = test system: Mus musculus; assay: Parenteral antimalarial activity against Plasmodium vinckei in mice (Mus musculus) measured as % cured and increase in MST (days) at 10 mg/kg dose
[20] = test system: Mus musculus; assay: Parenteral antimalarial activity against Plasmodium vinckei in mice (Mus musculus) measured as increase in mean survival time at 10 mg/kg dose
[21] = test system: Mus musculus; assay: Parenteral antimalarial activity against Plasmodium vinckei vinckei in mice (Mus musculus) measured as % cured and increase in MST (days) at 25 mg/kg dose.
[22] = test system: Mus musculus; assay: Parenteral antimalarial activity against Plasmodium vinckei vinckei in mice (Mus musculus) measured as % cured and increase in MST (days) at 30 mg/kg dose.
[23] = test system: Mus musculus; assay: Parenteral antimalarial activity against Plasmodium vinckei in mice (Mus musculus) measured as % cured and increase in MST (days) at 15 mg/kg dose.
[24] = test system: Mus musculus; assay: Parenteral antimalarial activity against Plasmodium vinckei vinckei in mice (Mus musculus) measured as % cured and increase in MST (days) at 20 mg/kg dose.
[25] = test system: Mus musculus; assay: Oral antimalarial activity against Plasmodium vinckei in mice (Mus musculus) measured as % cured and increase in MST (days) at 25 mg/kg dose.
[26] = test system: Mus musculus; assay: Oral antimalarial activity against Plasmodium vinckei in mice (Mus musculus) measured as % cured and increase in MST (days) at 50 mg/kg dose.
[27] = test system: Mus musculus; assay: Oral antimalarial activity against Plasmodium vinckei in mice (Mus musculus) measured as % cured and increase in MST (days) at 75 mg/kg dose.
[28] = test system: Mus musculus; assay: Parenteral antimalarial activity against Plasmodium vinckei vinckei in mice (Mus musculus) measured as % cured and increase in MST (days) at 10 mg/kg dose.
[29] = test system: Mus musculus; assay: Oral antimalarial activity against Plasmodium vinckei vinckei in mice (Mus musculus) measured as % cured and increase in MST (days) at 100 mg/kg dose.
[30] = test system: Mus musculus; assay: Oral antimalarial activity against Plasmodium vinckei vinckei in mice (Mus musculus) measured as % cured and increase in MST (days) at 150 mg/kg dose.
[31] = test system: Mus musculus; assay: Parenteral antimalarial activity against Plasmodium vinckei vinckei in mice (Mus musculus) measured as increase in mean survival time at 20 mg/kg dose.
[32] = test system: Mus musculus; assay: Parenteral antimalarial activity against Plasmodium vinckei vinckei in mice (Mus musculus) measured as increase in mean survival time at 25 mg/kg dose.
[33] = test system: Mus musculus; assay: Parenteral antimalarial activity against Plasmodium vinckei vinckei in mice (Mus musculus) measured as increase in mean survival time at 30 mg/kg dose.
[34] = test system: Mus musculus; assay: Parenteral antimalarial activity against Plasmodium vinckei in mice (Mus musculus) measured as increase in mean survival time at 10 mg/kg dose.
[35] = test system: Mus musculus; assay: Parenteral antimalarial activity against Plasmodium vinckei in mice (Mus musculus) measured as increase in mean survival time at 15 mg/kg dose.
[36] = test system: Mus musculus; assay: Oral antimalarial activity against Plasmodium vinckei vinckei in mice (Mus musculus) measured as increase in mean survival time at 100 mg/kg dose.
[37] = test system: Mus musculus; assay: Oral antimalarial activity against Plasmodium vinckei in mice (Mus musculus) measured as increase in mean survival time at 150 mg/kg dose.
[38] = test system: Mus musculus; assay: Oral antimalarial activity against Plasmodium vinckei vinckei in mice (Mus musculus) measured as increase in mean survival time at 50 mg/kg dose.
[39] = test system: Mus musculus; assay: Oral antimalarial activity against Plasmodium vinckei vinckei in mice (Mus musculus) measured as increase in mean survival time at 75 mg/kg dose.
[40] = test system: Mus musculus; assay: Oral antimalarial activity against Plasmodium vinckei in mice (Mus musculus) measured as increase in mean survival time at 25 mg/kg dose.

SMILES	Cured [1]	Cured [2]	Cured [3]	Cured [4]	Cured [5]	Cured [6]	Cured [7]	Cured [8]	Cured [9]	MST [10]	MST [11]	MST [12]	MST [13]	MST [14]	MST [15]	MST [17]	MST [18]	Cured [19]	MST [20]	MST [16]	further results
Cn1c(=O)nc2n(-c3cccc(Br)c3)c3ccccc3nc-2c1=O	60%	0%	20%	60%	0%	20%	40%	60%	60%	1.4 days	3 days	1 days	1.3 days	1.5 days	1 days	1.5 days	–	–	–	–	MST ([16]; 25 mg/kg): 1 days and 2 days
Cn1c(=O)nc2n(-c3cccc(Cl)c3)c3ccccc3nc-2c1=O	0%	0%	0%	0%	–	0%	20%	0%	60%	0.2 days	0 days	0 days	0 days	1.2 days	2.5 days	4.3 days	0 days	–	–	–	–
Cn1c(=O)nc2n(-c3ccc(Br)cc3)c3ccccc3nc-2c1=O	40%	100%	100%	60%	60%	100%	100%	100%	100%	–	14 days	13 days	–	–	–	–	–	80%	2 days	3.5 days	–
Cn1c(=O)nc2n(-c3cccc(F)c3)c3ccccc3nc-2c1=O	–	–	–	–	–	–	–	–	–	–	–	–	–	–	–	–	–	–	–	0 days	Cured [21]: 0%; Cured [22]: 0%; Cured [23]: 0%; Cured [24]: 40%; Cured [25]: 40%; Cured [26]: 40%; Cured [27]: 20%; Cured [28]: 0%; Cured [29]: 80%; Cured [30]: 40%; MST [31]: 1.7 days; MST [32]: 2 days; MST [33]: 2.2 days; MST [34]: 0 days; MST [35]: 0.2 days; MST [36]: 0 days; MST [37]: 0 days; MST [38]: 0 days; MST [39]: 2.5 days
Cn1c(=O)nc2n(-c3ccc(F)cc3)c3ccccc3nc-2c1=O	0%	0%	20%	0%	0%	0%	0%	0%	20%	0.5 days	0.8 days	0.2 days	0.8 days	1 days	2.3 days	0.6 days	0.8 days	0%	0 days	0 days	–
Cc1cc(Cl)ccc1-n1c2nc(=O)n(C)c(=O)c-2nc2ccccc21	–	–	–	–	–	–	–	–	–	–	–	–	–	–	–	–	–	–	–	–	Cured [21]: 0%; Cured [22]: 0%; Cured [23]: 0%; Cured [24]: 0%; Cured [25]: 0%; Cured [26]: 80%; Cured [27]: 40%; Cured [29]: 60%; Cured [30]: 40%; MST [31]: 1.2 days; MST [32]: -1.4 days; MST [33]: -2 days; MST [35]: 1.2 days; MST [36]: 2 days; MST [37]: 1.5 days; MST [40]: 0.5 days; MST [38]: 1.5 days; MST [39]: 3.2 days
Cn1c(=O)nc2n(-c3ccc(Cl)cc3)c3ccccc3nc-2c1=O	–	95%	–	–	45%	75%	85%	90%	90%	–	–	–	1 days	2.7 days	2.7 days	1 days	1.4 days	60%	1.5 days	2.4 days	Cured ([3]; 20 mg/kg): 100% and 90%
